From patent US10004701B2, “Methods and compositions for treating infection” (UNIVERSITY OF ROCHESTER, priority 2012, dated 2018)
Counter-ions that a name gives are not always drawn. Like-named read-outs stand apart in the source and are kept apart here.

Columns and labels:
Experiment in all cases: AK assay 384-well format, Prestwick library screening
E. coli = format: cell-based, Escherichia coli; details: 50 μM final drug concentration; for fold induction at 50 µM: Escherichia coli, 3 h
[1] = tested on: A. baumannii strain 98-37-09; format: cell-based, Acinetobacter baumannii; details: 50 μM final drug concentration; for fold induction at 50 µM: Acinetobacter baumannii, 983709, 3 h
E. faecium = format: cell-based, Enterococcus faecium; details: 50 μM final drug concentration; for fold induction at 50 µM: Enterococcus faecium, 3 h
E. cloacae = format: cell-based, Enterobacter cloacae; details: 50 μM final drug concentration; for fold induction at 50 µM: Enterobacter cloacae, 3 h
[2] = tested on: S. aureus strain USA300-0114; format: cell-based, Staphylococcus aureus; details: 50 μM final drug concentration; for fold induction at 50 µM: Staphylococcus aureus, USA300, 3 h
K. pneumoniae = format: cell-based, Klebsiella pneumoniae; details: 50 μM final drug concentration; for fold induction at 50 µM: Klebsiella pneumoniae, 3 h
P. aeruginosa = format: cell-based, Pseudomonas aeruginosa; details: 50 μM final drug concentration; for fold induction at 50 µM: Pseudomonas aeruginosa, 3 h
[3] = planktonic, cutoff for positive-scoring molecules 3-fold increase, read-out: AK-based Prestwick Library Screening Results, E. coli (fold increase in extracellular AK activity)
[4] = planktonic, cutoff for positive-scoring molecules 3-fold increase, read-out: AK-based Prestwick Library Screening Results, A. baumannii (fold increase in extracellular AK activity)
[5] = planktonic, cutoff for positive-scoring molecules 3-fold increase, read-out: AK-based Prestwick Library Screening Results, E. faecium (fold increase in extracellular AK activity)
[6] = planktonic, cutoff for positive-scoring molecules 3-fold increase, read-out: AK-based Prestwick Library Screening Results, E. cloacae (fold increase in extracellular AK activity)
[7] = planktonic, cutoff for positive-scoring molecules 3-fold increase, read-out: AK-based Prestwick Library Screening Results, S. aureus (fold increase in extracellular AK activity)
[8] = planktonic, cutoff for positive-scoring molecules 3-fold increase, read-out: AK-based Prestwick Library Screening Results, K. pneumoniae (fold increase in extracellular AK activity)
[9] = planktonic, cutoff for positive-scoring molecules 3-fold increase, read-out: AK-based Prestwick Library Screening Results, P. aeruginosa (fold increase in extracellular AK activity)
[10] = planktonic, cutoff for positive-scoring molecules 3-fold increase
[11] = planktonic E. coli, 384-well, cutoff for positive-scoring molecules 3-fold increase, read-out: AK-based Prestwick Library Screening Results: E. coli (increase in extracellular AK activity)
[12] = planktonic A. baumannii, 384-well, cutoff for positive-scoring molecules 3-fold increase, read-out: AK-based Prestwick Library Screening Results: A. baumannii (increase in extracellular AK activity)
[13] = planktonic E. faecium, 384-well, cutoff for positive-scoring molecules 3-fold increase, read-out: AK-based Prestwick Library Screening Results: E. faecium (increase in extracellular AK activity)
[14] = planktonic E. cloacae, 384-well, cutoff for positive-scoring molecules 3-fold increase, read-out: AK-based Prestwick Library Screening Results: E. cloacae (increase in extracellular AK activity)
[15] = planktonic S. aureus, 384-well, cutoff for positive-scoring molecules 3-fold increase, read-out: AK-based Prestwick Library Screening Results: S. aureus (increase in extracellular AK activity)
[16] = planktonic K. pneumoniae, 384-well, cutoff for positive-scoring molecules 3-fold increase, read-out: AK-based Prestwick Library Screening Results: K. pneumoniae (increase in extracellular AK activity)
[17] = planktonic P. aeruginosa, 384-well, cutoff for positive-scoring molecules 3-fold increase, read-out: AK-based Prestwick Library Screening Results: P. aeruginosa (increase in extracellular AK activity)
[18] = planktonic, cutoff for positive 3-fold increase

COc1ncnc(NS(=O)(=O)c2ccc(N)cc2)c1OC [Sulfadoxine]
fold induction at 50 µM (E. coli; planktonic E. coli, positive cutoff 3-fold increase, read-out: AK-based Prestwick library screening result, E. coli (fold increase in extracellular AK activity)): 1
fold induction at 50 µM ([1]; planktonic A. baumannii, positive cutoff 3-fold increase, read-out: AK-based Prestwick library screening result, A. baumannii (fold increase in extracellular AK activity)): 2.9
fold induction at 50 µM (E. faecium; planktonic E. faecium, positive cutoff 3-fold increase, read-out: AK-based Prestwick library screening result, E. faecium (fold increase in extracellular AK activity)): 1
fold induction at 50 µM (E. cloacae; planktonic E. cloacae, positive cutoff 3-fold increase, read-out: AK-based Prestwick library screening result, E. cloacae (fold increase in extracellular AK activity)): 1.3
fold induction at 50 µM ([2]; planktonic S. aureus, positive cutoff 3-fold increase, read-out: AK-based Prestwick library screening result, S. aureus (fold increase in extracellular AK activity)): 0.9
fold induction at 50 µM (K. pneumoniae; planktonic K. pneumoniae, positive cutoff 3-fold increase, read-out: AK-based Prestwick library screening result, K. pneumoniae (fold increase in extracellular AK activity)): 1
fold induction at 50 µM (P. aeruginosa; planktonic P. aeruginosa, positive cutoff 3-fold increase, read-out: AK-based Prestwick library screening result, P. aeruginosa (fold increase in extracellular AK activity)): 1

C[N+]1(C)C[C@H](O)C[C@H]1C(=O)[O-] [Betonicine]
fold induction at 50 µM (E. coli; [3]): 0.4
fold induction at 50 µM [1, 4]: 0.4
fold induction at 50 µM (E. faecium; [5]): 0.9
fold induction at 50 µM (E. cloacae; [6]): 0.4
fold induction at 50 µM [2, 7]: 0.4
fold induction at 50 µM (K. pneumoniae; [8]): 0.6
fold induction at 50 µM (P. aeruginosa; [9]): 0.4

CCCCOC(=O)c1ccc(N)cc1 [Butamben]
fold induction at 50 µM (E. coli; [3]): 0.8
fold induction at 50 µM [1, 4]: 0.7
fold induction at 50 µM (E. faecium; [5]): 0.8
fold induction at 50 µM (E. cloacae; [6]): 1.7
fold induction at 50 µM [2, 7]: 1.1
fold induction at 50 µM (K. pneumoniae; [8]): 0.6
fold induction at 50 µM (P. aeruginosa; [9]): 0.9

O=C(O)CCC(=O)Nc1ccc(S(=O)(=O)Nc2nccs2)cc1 [Succinylsulfathiazole]
fold induction at 50 µM (E. coli; cutoff for positive-scoring molecules 3-fold increase, read-out: AK-based Prestwick Library Screening Results, E. coli (fold increase in extracellular AK activity)): 1.4
fold induction at 50 µM ([1]; cutoff for positive-scoring molecules 3-fold increase, read-out: AK-based Prestwick Library Screening Results, A. baumannii (fold increase in extracellular AK activity)): 1.3
fold induction at 50 µM (E. faecium; cutoff for positive-scoring molecules 3-fold increase, read-out: AK-based Prestwick Library Screening Results, E. faecium (fold increase in extracellular AK activity)): 1
fold induction at 50 µM (E. cloacae; cutoff for positive-scoring molecules 3-fold increase, read-out: AK-based Prestwick Library Screening Results, E. cloacae (fold increase in extracellular AK activity)): 1.4
fold induction at 50 µM ([2]; cutoff for positive-scoring molecules 3-fold increase, read-out: AK-based Prestwick Library Screening Results, S. aureus (fold increase in extracellular AK activity)): 1.3
fold induction at 50 µM (K. pneumoniae; cutoff for positive-scoring molecules 3-fold increase, read-out: AK-based Prestwick Library Screening Results, K. pneumoniae (fold increase in extracellular AK activity)): 1.1
fold induction at 50 µM (P. aeruginosa; cutoff for positive-scoring molecules 3-fold increase, read-out: AK-based Prestwick Library Screening Results, P. aeruginosa (fold increase in extracellular AK activity)): 1.1

C/C(=C(\CCOP(=O)(O)O)SC(=O)c1ccccc1)N(C=O)Cc1cnc(C)nc1N [Benfotiamine]
fold induction at 50 µM (E. coli; [3]): 0.7
fold induction at 50 µM [1, 4]: 0.7
fold induction at 50 µM (E. faecium; [5]): 0.9
fold induction at 50 µM (E. cloacae; [6]): 0.8
fold induction at 50 µM [2, 7]: 0.5
fold induction at 50 µM (K. pneumoniae; [8]): 0.6
fold induction at 50 µM (P. aeruginosa; [9]): 0.6

Foliosidine
AK-based Prestwick Library Screening Results, E. coli (fold increase in extracellular AK activity) (E. coli; planktonic, […]): 0.9
AK-based Prestwick Library Screening Results, A. baumannii (fold increase in extracellular AK activity) [1, 10]: 0.8
AK-based Prestwick Library Screening Results, E. faecium (fold increase in extracellular AK activity) (E. faecium; [10]): 0.9
AK-based Prestwick Library Screening Results, E. cloacae (fold increase in extracellular AK activity) (E. cloacae; [10]): 1.0
AK-based Prestwick Library Screening Results, S. aureus (fold increase in extracellular AK activity) [2, 10]: 0.7
AK-based Prestwick Library Screening Results, K. pneumoniae (fold increase in extracellular AK activity) (K. pneumoniae; [10]): 0.8
AK-based Prestwick Library Screening Results, P. aeruginosa (fold increase in extracellular AK activity) (P. aeruginosa; [10]): 0.8

c1cncc([C@@H]2CCCCN2)c1 [Anabasine]
fold induction at 50 µM (E. coli; planktonic, […], read-out: AK-based Prestwick Library Screening Results, E. coli (fold increase in extracellular AK activity)): 1
fold induction at 50 µM ([1]; planktonic, […], read-out: AK-based Prestwick Library Screening Results, A. baumannii (fold increase in extracellular AK activity)): 0.8
fold induction at 50 µM (E. faecium; planktonic, […], read-out: AK-based Prestwick Library Screening Results, E. faecium (fold increase in extracellular AK activity)): 0.9
fold induction at 50 µM (E. cloacae; planktonic, […], read-out: AK-based Prestwick Library Screening Results, E. cloacae (fold increase in extracellular AK activity)): 1
fold induction at 50 µM ([2]; planktonic, […], read-out: AK-based Prestwick Library Screening Results, S. aureus (fold increase in extracellular AK activity)): 0.6
fold induction at 50 µM (K. pneumoniae; planktonic, […], read-out: AK-based Prestwick Library Screening Results, K. pneumoniae (fold increase in extracellular AK activity)): 0.8
fold induction at 50 µM (P. aeruginosa; planktonic, […], read-out: AK-based Prestwick Library Screening Results, P. aeruginosa (fold increase in extracellular AK activity)): 0.9

Nc1ccc(S(=O)(=O)c2ccc(N)cc2)cc1 [Dapsone]
fold induction at 50 µM (E. coli; 384-well format, cutoff for positive-scoring molecules 3-fold increase, read-out: AK-based Prestwick Library Screening Results, E. coli (increase in extracellular AK activity)): 0.8
fold induction at 50 µM ([1]; 384-well format, cutoff for positive-scoring molecules 3-fold increase, read-out: AK-based Prestwick Library Screening Results, A. baumannii (increase in extracellular AK activity)): 1.3
fold induction at 50 µM (E. faecium; 384-well format, cutoff for positive-scoring molecules 3-fold increase, read-out: AK-based Prestwick Library Screening Results, E. faecium (increase in extracellular AK activity)): 0.9
fold induction at 50 µM (E. cloacae; 384-well format, cutoff for positive-scoring molecules 3-fold increase, read-out: AK-based Prestwick Library Screening Results, E. cloacae (increase in extracellular AK activity)): 1.1
fold induction at 50 µM ([2]; 384-well format, cutoff for positive-scoring molecules 3-fold increase, read-out: AK-based Prestwick Library Screening Results, S. aureus (increase in extracellular AK activity)): 0.6
fold induction at 50 µM (K. pneumoniae; 384-well format, cutoff for positive-scoring molecules 3-fold increase, read-out: AK-based Prestwick Library Screening Results, K. pneumoniae (increase in extracellular AK activity)): 0.7
fold induction at 50 µM (P. aeruginosa; 384-well format, cutoff for positive-scoring molecules 3-fold increase, read-out: AK-based Prestwick Library Screening Results, P. aeruginosa (increase in extracellular AK activity)): 0.8

CCN(CC)CCOC(=O)C(c1ccccc1)c1ccccc1 [Adiphenine hydrochloride]
fold induction at 50 µM (E. coli; [11]): 1.2
fold induction at 50 µM [1, 12]: 1.3
fold induction at 50 µM (E. faecium; [13]): 1
fold induction at 50 µM (E. cloacae; [14]): 1.5
fold induction at 50 µM [2, 15]: 1.3
fold induction at 50 µM (K. pneumoniae; [16]): 1
fold induction at 50 µM (P. aeruginosa; [17]): 0.9

Oc1cc(O)c2c(c1)O[C@H](c1ccc(O)c(O)c1)[C@H](O)C2 [Epicatechin-(−)]
AK-based Prestwick Library Screening Results, E. coli (fold increase in extracellular AK activity) (E. coli; [18]): 0.4
AK-based Prestwick Library Screening Results, A. baumannii (fold increase in extracellular AK activity) [1, 18]: 0.3
AK-based Prestwick Library Screening Results, E. faecium (fold increase in extracellular AK activity) (E. faecium; [18]): 0.9
AK-based Prestwick Library Screening Results, E. cloacae (fold increase in extracellular AK activity) (E. cloacae; [18]): 0.3
AK-based Prestwick Library Screening Results, S. aureus (fold increase in extracellular AK activity) [2, 18]: 0.3
AK-based Prestwick Library Screening Results, K. pneumoniae (fold increase in extracellular AK activity) (K. pneumoniae; [18]): 0.4
AK-based Prestwick Library Screening Results, P. aeruginosa (fold increase in extracellular AK activity) (P. aeruginosa; [18]): 0.3

O=C(O)CCC(=O)c1ccc(-c2ccccc2)cc1 [Fenbufen]
fold induction at 50 µM (E. coli; [11]): 0.8
fold induction at 50 µM [1, 12]: 1
fold induction at 50 µM (E. faecium; [13]): 0.8
fold induction at 50 µM (E. cloacae; [14]): 1.6
fold induction at 50 µM [2, 15]: 0.7
fold induction at 50 µM (K. pneumoniae; [16]): 0.8
fold induction at 50 µM (P. aeruginosa; [17]): 0.8
